Experiments:
Type in all cases: cell-based
[1] = target: indoleamine 2, 3-dioxygenase (IDO1) (Homo sapiens, UniProt P14902); assay: IDO1 HeLa RapidFire MS Assay (kynurenine by mass spectrometry); conditions: HeLa cells stimulated with IFN-γ, 2 days; recorded as pIC50; read-out: IDO1 HeLa PXC50 (converted)
Method: IDO1 HeLa RapidFire MS Assay
(§1) Compounds of the present invention were tested via high-throughput cellular assays utilizing detection of kynurenine via mass spectrometry and cytotoxicity as end-points. […] Compounds with IDO1 inhibitory properties decreased the amount of kynurenine produced by the cells via the tryptophan catabolic pathway. Cellular toxicity due to the effect of compound treatment was measured using CellTiter-Glo® reagent (CTG) (Promega Corporation, Madison, Wis.), which is based on luminescent detection of ATP, an indicator of metabolically active cells.
(§2) In preparation for the assays, test compounds were serially diluted 3-fold in DMSO from a typical top concentration of 1 mM or 5 mM and plated at 0.5 μL in 384-well, polystyrene, clear bottom, tissue culture treated plates with lids (Greiner Bio-One, Kremsmünster, Austria) to generate 11-point dose response curves. Low control wells (0% kynurenine or 100% cytotoxicity) contained either 0.5 μL of DMSO in the presence of unstimulated (−IFN-γ) HeLa cells for the mass spectrometry assay or 0.5 μL of DMSO in the absence of cells for the cytotoxicity assay, and high control wells (100% kynurenine or 0% cytotoxicity) contained 0.5 μL of DMSO in the presence of stimulated (+IFN-γ) HeLa cells for both the mass spectrometry and cytotoxicity assays.
(§3) Frozen stocks of HeLa cells were washed and recovered in DMEM high glucose medium with HEPES (Thermo Fisher Scientific, Inc., Waltham, Mass.) supplemented with 10% v/v certified fetal bovine serum (FBS) (Thermo Fisher Scientific, Inc., Waltham, Mass.), and 1× penicillin-streptomycin antibiotic solution (Thermo Fisher Scientific, Inc., Waltham, Mass.). The cells were diluted to 100,000 cells/mL in the supplemented DMEM medium. 50 μL of either the cell suspension, for the mass spectrometry assay, or medium alone, for the cytotoxicity assay, were added to the low control wells, on the previously prepared 384-well compound plates, resulting in 5,000 cells/well or 0 cells/well respectively. IFN-γ was added to the remaining cell suspension at a final concentration of 10 nM, and 50 μL of the stimulated cells were added to all remaining wells on the 384-well compound plates. The plates, with lids, were then placed in a 37° C., 5% CO2 humidified incubator for 2 days.
(§4) Following incubation, the 384-well plates were removed from the incubator and allowed to equilibrate to room temperature for 30 minutes. For the cytotoxicity assay, CellTiter-Glo® was prepared according to the manufacturer's instructions, and 10 μL were added to each plate well. After a twenty minute incubation at room temperature, luminescence was read on an EnVision® Multilabel Reader (PerkinElmer Inc., Waltham, Mass.). For the mass spectrometry assay, 10 μL of supernatant from each well of the compound-treated plates were added to 40 μL of acetonitrile, containing 10 μM of an internal standard for normalization, in 384-well, polypropylene, V-bottom plates (Greiner Bio-One, Kremsmünster, Austria) to extract the organic analytes. Following centrifugation at 2000 rpm for 10 minutes, 10 μL from each well of the acetonitrile extraction plates were added to 90 μL of sterile, distilled H2O in 384-well, polypropylene, V-bottom plates for analysis of kynurenine and the internal standard on the RapidFire 300 (Agilent Technologies, Santa Clara, Calif.) and 4000 QTRAP MS (SCIEX, Framingham, Mass.). MS data were integrated using Agilent Technologies' RapidFire Integrator software, and data were normalized for analysis as a ratio of kynurenine to the internal standard.

[2] = system: human peripheral blood mononuclear cells (PBMC); assay: PBMC cytotoxicity assay (CellTiter-Glo); conditions: cytotoxicity in stimulated PBMC, recorded as pCC50
[3] = system: human epithelial HeLa cells; assay: HeLa cytotoxicity assay (CellTiter-Glo); conditions: cytotoxicity in stimulated HeLa cells, recorded as pCC50
Method: as §1, §2, §3, §4

indoleamine 2, 3-dioxygenase (IDO1), sequence (P14902 whole entry): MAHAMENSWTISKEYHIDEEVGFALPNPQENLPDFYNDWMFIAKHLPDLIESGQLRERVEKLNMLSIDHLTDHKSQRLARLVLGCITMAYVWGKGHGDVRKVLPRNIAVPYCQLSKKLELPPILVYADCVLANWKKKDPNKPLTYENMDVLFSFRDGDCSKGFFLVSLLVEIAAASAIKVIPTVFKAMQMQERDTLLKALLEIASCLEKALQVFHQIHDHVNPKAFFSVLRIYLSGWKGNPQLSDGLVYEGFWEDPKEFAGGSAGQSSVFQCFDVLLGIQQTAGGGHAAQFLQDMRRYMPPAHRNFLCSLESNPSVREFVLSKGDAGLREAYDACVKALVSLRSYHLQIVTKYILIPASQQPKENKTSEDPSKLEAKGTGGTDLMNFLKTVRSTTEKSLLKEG

Row | Compound | IC50 [1] [µM] | PBMC_TOX PXC50 [2] | HELA_IDO1_TOX_PXC50 [3]
1 | CC(C)CN(c1ncc([C@H](C)CC(=O)O)cc1Nc1ccc(Cl)c(F)n1)C1CCOCC1 [Example 7, (R)-3-(5-((5-chloro-6-fluoropyridin-2-yl)amino)-6-(isobutyl(tetrahydro-2H-pyran-4-yl)amino)pyridin-3-yl)butanoic acid] | 0.0126 | <5.0 | <5
2 | CC(C)CN(c1ncc([C@H](C)CC(=O)O)cc1Nc1nc(C(F)(F)F)ns1)C1CC(F)(F)C1 [Example 20, (R)-3-(6-((3,3-difluorocyclobutyl)(isobutyl)amino)-5-((3-(trifluoromethyl)-1,2,4-thiadiazol-5-yl)amino)pyridin-3-yl)butanoic acid] | 0.0126 | <5.0 | <5
3 | CC(C)CN(c1ncc([C@H](C)CC(=O)O)cc1Nc1cnc(Cl)nc1)C1CCOCC1 [Example 5, (R)-3-(5-((2-chloropyrimidin-5-yl)amino)-6-(isobutyl(tetrahydro-2H-pyran-4-yl)amino)pyridin-3-yl)butanoic acid] | 0.0158 | <5.0 | <5
4 | CC(C)CN(c1ncc(-c2ccccc2C(=O)O)cc1Nc1nc(C(F)(F)F)ns1)C1CCOCC1 [Example 29, 2-(6-(isobutyl(tetrahydro-2H-pyran-4-yl)amino)-5-((3-(trifluoromethyl)-1,2,4-thiadiazol-5-yl)amino)pyridin-3-yl)benzoic acid] | 0.0158 | <5.0 | <5
5 | CC(C)CN(c1ncc([C@H](C)CC(=O)O)cc1Nc1nc(Cl)ns1)C1CCC(F)(F)CC1 [Example 30, (R)-3-(5-((3-chloro-1,2,4-thiadiazol-5-yl)amino)-6-((4,4-difluorocyclohexyl)(isobutyl)amino)pyridin-3-yl)butanoic acid] | 0.0398 | <5.0 | <5
6 | CC(C)CN(c1ncc([C@H](C)CC(=O)O)cc1Nc1ccc(Cl)nc1)C1CCOCC1 [Example 4, (R)-3-(5-((6-chloropyridin-3-yl)amino)-6-(isobutyl(tetrahydro-2H-pyran-4-yl)amino)pyridin-3-yl)butanoic acid] | 0.01 | <5.0 | <5
7 | CC(C)CN(CC(C)C)c1ncc(C(C)CC(=O)O)cc1Nc1nc(C(F)(F)F)ns1 (stereo not drawn) [Example 1, 3-(6-(diisobutylamino)-5-((3-(trifluoromethyl)-1,2,4-thiadiazol-5-yl)amino)pyridin-3-yl)butanoic acid] | 0.01 | <5.0 | <5
8 | CC(C)CN(c1ncc(C(C)CC(=O)O)cc1Nc1ccc(C(F)(F)F)cn1)C1CCOCC1 (stereo not drawn) [Example 2, 3-(6-(isobutyl(tetrahydro-2H-pyran-4-yl)amino)-5-((5-(trifluoromethyl)pyridin-2-yl)amino)pyridin-3-yl)butanoic acid] | 0.01 | <5.0 | <5
9 | Cc1cc(NC(=O)Nc2cc([C@H](C)CC(=O)O)cnc2N(CC(C)C)C2CC3(C2)CN(C(=O)OC(C)(C)C)C3)on1 [Example 61, (3R)-3-[6-({2-[(tert-butoxy)carbonyl]-2-azaspiro[3.3]heptan-6-yl}(2-methylpropyl)amino)-5-{[(3-methyl-1,2-oxazol-5-yl)carbamoyl]amino}pyridin-3-yl]butanoic acid] | – | <5.0 | –
10 | COC(=O)c1c[nH]c(Nc2cc([C@H](C)CC(=O)O)cnc2N(CC(C)C)C2CCOCC2)n1 [Example 50, (3R)-3-(5-{[4-(methoxycarbonyl)-1H-imidazol-2-yl]amino}-6-[(2-methylpropyl)(oxan-4-yl)amino]pyridin-3-yl)butanoic acid] | – | <5.0 | –
11 | CO[C@H]1CC[C@@H](N(CC(C)C)c2ncc([C@H](C)CC(=O)O)cc2Nc2ccc(C#N)cn2)CC1 [Example 25, (R)-3-(5-((5-cyanopyridin-2-yl)amino)-6-(isobutyl((1s,4S)-4-methoxycyclohexyl)amino)pyridin-3-yl)butanoic acid] | – | <5.0 | –
12 | CC(C)CN(c1ncc([C@H](C)CC(=O)O)cc1Nc1cnc(C#N)cn1)C1CCOCC1 [Example 67, (3R)-3-{5-[(5-cyanopyrazin-2-yl)amino]-6-[(2-methylpropyl)(oxan-4-yl)amino]pyridin-3-yl}butanoic acid] | – | <5.0 | –

Now from value to molecule, other results behind:

Row | IC50 [1] [µM] | Compound | PBMC_TOX PXC50 [2] | HELA_IDO1_TOX_PXC50 [3]
13 | 0.01 | C[C@H](CC(=O)O)c1cnc(N(CCCCCN)C2CCOCC2)c(Nc2ccc(Cl)cn2)c1 [Example 83, (3R)-3-{6-[(5-aminopentyl)(oxan-4-yl)amino]-5-[(5-chloropyridin-2-yl)amino]pyridin-3-yl}butanoic acid] | <5.0 | <5
14 | 0.316 | CC(C)CN(c1ncc(C(C)CC(=O)O)cc1Nc1nc(Cl)ns1)C1CCOCC1 (stereo not drawn) [Example 34, 3-{5-[(3-chloro-1,2,4-thiadiazol-5-yl)amino]-6-[(2-methylpropyl)(oxan-4-yl)amino]pyridin-3-yl}butanoic acid] | <5.0 | <5
15 | 0.01 | C[C@H](CC(=O)O)c1cnc(N(CCCCCNC(=O)OC2CC/C=C/CCC2)C2CCOCC2)c(Nc2ccc(Cl)cn2)c1 (stereo partly drawn) [Example 84, (3R)-3-{5-[(5-chloropyridin-2-yl)amino]-6-{[5-({[(4E)-cyclooct-4-en-1-yloxy]carbonyl}amino)pentyl](oxan-4-yl)amino}pyridin-3-yl}butanoic acid] | <5.0 | <5
16 | 0.00794 | CC(C)CN(CC(C)C)c1ncc([C@H](C)CC(=O)O)cc1Nc1nc(C(F)(F)F)ns1 [Example 40, (3R)-3-{6-[bis(2-methylpropyl)amino]-5-{[3-(trifluoromethyl)-1,2,4-thiadiazol-5-yl]amino}pyridin-3-yl}butanoic acid] | <5.6 | <5
17 | 0.00794 | CC(C)CN(c1ncc(C(C)CC(=O)O)cc1Nc1nnc(C2CC2)s1)C1CCOCC1 (stereo not drawn) [Example 36, 3-{5-[(5-cyclopropyl-1,3,4-thiadiazol-2-yl)amino]-6-[(2-methylpropyl)(oxan-4-yl)amino]pyridin-3-yl}butanoic acid] | <5.0 | –
18 | 0.00501 | CC(C)CN(c1ncc(C(C)CC(=O)O)cc1Nc1nc(C(F)(F)F)ns1)C1CCOCC1 (stereo not drawn) [Example 31, 3-{6-[(2-methylpropyl)(oxan-4-yl)amino]-5-{[3-(trifluoromethyl)-1,2,4-thiadiazol-5-yl]amino}pyridin-3-yl}butanoic acid] | <5.0 | <5
19 | 0.02 | CC(C)CN(c1ncc(C(C)CC(=O)O)cc1Nc1ccc(C#N)cn1)C1CCOCC1 (stereo not drawn) [Example 33, 3-{5-[(5-cyanopyridin-2-yl)amino]-6-[(2-methylpropyl)(oxan-4-yl)amino]pyridin-3-yl}butanoic acid] | <5.0 | <5
20 | 0.00794 | CC(C)CN(c1ncc(C(C)CC(=O)O)cc1Nc1ccc(Cl)cn1)C1CCOCC1 (stereo not drawn) [Example 35, 3-{5-[(5-chloropyridin-2-yl)amino]-6-[(2-methylpropyl)(oxan-4-yl)amino]pyridin-3-yl}butanoic acid] | <5.0 | <5
21 | 0.631 | CC(C)CN(CC(C)C)c1ncc(C(C)CC(=O)O)cc1Nc1nc(Cl)ns1 (stereo not drawn) [Example 32, 3-{6-[bis(2-methylpropyl)amino]-5-[(3-chloro-1,2,4-thiadiazol-5-yl)amino]pyridin-3-yl}butanoic acid] | <5.0 | <5
